Reference: patent US12012419B2, “Heterocyclic compound” (Takeda Pharmaceutical Company Limited, priority 2018, dated 2024)

Legend:
[1] = test system: Male beagle dogs; assay: Experiment on gastrointestinal motility in dogs; assay type: in vivo, dog; details: 0.03 mg/kg orally, 8 hr after administration, compared with the solvent administration group
Protocol: Experiment on Gastrointestinal Motility in Dogs
Male beagle dogs each equipped with four pressure transducers (one in the ileum and three in the large intestine) were used after an acclimation period for 15 days after surgery. The compound of Example 1 (0.03 mg/kg) was suspended in 0.5% methylcellulose solution and orally administered at a volume of 10 mL/kg. Only 0.5% methylcellulose was administered to a solvent administration group.
HAPC (abbreviation for high amplitude propagated contractions which mean strong contractions propagated from the oral side to the anal side of the large intestine during defecation. Intestinal contraction pattern observed during normal defecation.) at 8 hr after administration was counted using a telemeter for gastrointestinal motility (GTS-850, STARMEDICAL).

[2] = Rat PK test; assay type: in vivo; details: plasma, male SD rats
Protocol: As the rat, 8-week-old male SD rats (Japan SLC, Inc.) were used. They were fed on a solid commercially available diet (CE-2, CLEA Japan, Inc.) and allowed to freely ingest tap water as the drinking water. An intravenous administration solution for the rats was prepared by weighing a test compound, dissolving same in dimethylacetamide (DMA) (Wako Pure Chemical Industries, Ltd.), adding the same volume of 1,3-butanediol (Wako Pure Chemical Industries, Ltd.) and mixing by stirring to give a DMA:1,3-butanediol (1:1, v/v) solution. An oral administration solution was prepared by weighing a test compound, pulverizing same in an agate mortar, and gradually adding 0.5 w/v % aqueous methylcellulose solution to give a suspension. For intravenous administration, the solution was administered into femoral vein of the rats at 0.1 mg/0.5 mL/kg (salt converted to free form). For oral administration, the suspension was administered to the rats at 1 mg/5 mL/kg (salt converted to free form). The cassette dosing method was used for the both administration routes, and the test compound was administered in the following manner.
Compound of Example 1 (Intravenous: 10 Compounds Cassette Administration, Oral: 5 Compounds Cassette Administration)
In the case of intravenous administration, blood samples were collected from the tail vein at 5, 10, 15, 30 min, 1, 2, 4, 8 hr after administration, an anticoagulation treatment with heparin sodium (Shimizu Pharmaceutical Co., Ltd.) was performed, and plasma was collected after centrifugation and subjected to the measurement of drug concentration. In the case of oral administration, blood samples were collected from the tail vein at 15, 30 min, 1, 2, 4, 8 hr after administration, an anticoagulation treatment with heparin sodium was performed, and plasma was collected after centrifugation and subjected to the measurement of drug concentration.
All drug concentrations were measured by LC-MS/MS analysis. […]

[3] = molecular target: T1, MDR1 (Homo sapiens, UniProt P08183); assay: MDR1 membrane permeability test; assay type: in vitro ADME; details: LLC-PK1, pH 7.4, 10 μmol/L test compound, Papp B to A / Papp A to B, read-out: Efflux ratio (ER)
T1 construct: expressed in transfected cells
T1 sequence (P08183 whole entry): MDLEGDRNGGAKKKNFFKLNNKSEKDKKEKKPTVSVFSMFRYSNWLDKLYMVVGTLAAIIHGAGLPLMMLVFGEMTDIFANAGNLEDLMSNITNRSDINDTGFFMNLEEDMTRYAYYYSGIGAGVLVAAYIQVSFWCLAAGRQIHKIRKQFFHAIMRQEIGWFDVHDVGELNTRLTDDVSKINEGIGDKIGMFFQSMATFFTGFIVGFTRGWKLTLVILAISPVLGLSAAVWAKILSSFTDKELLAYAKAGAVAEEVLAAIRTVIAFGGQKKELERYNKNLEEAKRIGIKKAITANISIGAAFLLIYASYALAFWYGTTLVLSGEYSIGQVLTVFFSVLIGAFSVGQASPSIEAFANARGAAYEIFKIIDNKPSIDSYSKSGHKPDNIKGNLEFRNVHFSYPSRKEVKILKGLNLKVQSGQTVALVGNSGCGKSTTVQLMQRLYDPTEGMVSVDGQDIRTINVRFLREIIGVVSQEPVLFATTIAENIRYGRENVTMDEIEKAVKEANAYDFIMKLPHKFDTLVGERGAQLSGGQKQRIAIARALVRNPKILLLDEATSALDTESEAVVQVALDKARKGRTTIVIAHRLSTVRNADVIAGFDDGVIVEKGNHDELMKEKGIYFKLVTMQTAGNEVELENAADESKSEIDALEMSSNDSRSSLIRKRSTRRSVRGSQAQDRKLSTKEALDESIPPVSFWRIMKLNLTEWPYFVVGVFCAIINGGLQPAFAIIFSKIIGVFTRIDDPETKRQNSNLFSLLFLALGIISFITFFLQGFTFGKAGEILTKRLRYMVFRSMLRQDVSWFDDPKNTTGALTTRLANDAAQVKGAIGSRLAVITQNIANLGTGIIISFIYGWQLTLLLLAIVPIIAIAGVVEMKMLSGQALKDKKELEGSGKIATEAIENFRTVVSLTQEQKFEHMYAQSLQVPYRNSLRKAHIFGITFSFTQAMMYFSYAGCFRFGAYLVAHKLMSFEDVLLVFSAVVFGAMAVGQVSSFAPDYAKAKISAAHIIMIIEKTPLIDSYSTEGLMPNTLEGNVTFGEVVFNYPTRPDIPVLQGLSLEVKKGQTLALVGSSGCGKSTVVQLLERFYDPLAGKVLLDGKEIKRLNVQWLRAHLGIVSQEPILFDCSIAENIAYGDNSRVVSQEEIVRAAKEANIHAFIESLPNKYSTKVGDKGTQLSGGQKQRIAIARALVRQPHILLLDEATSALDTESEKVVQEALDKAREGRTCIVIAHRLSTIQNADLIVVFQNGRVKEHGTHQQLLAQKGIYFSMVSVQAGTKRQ
Protocol: MDR1 Membrane Permeability Test
When MDR1 is expressed in excess in LLC-PK1 cell, which is a polar cell, MDR1 is localized in apical membrane (A), thus promoting transcellular transport from the basement membrane side (B) toward direction A. When a ratio to the transcellular transport in the opposite direction is taken and a ratio to a control cell in which a mock vector has been introduced is further taken, an efflux ratio of MDR1 to simple diffusion (corrected efflux ratio) is calculated. Similarly, when a brain/plasma concentration ratio in Mdr1(−/−) mouse is divided by a brain/plasma concentration ratio in wild-type mouse, an efflux ratio of Mdr1 to simple diffusion in blood-brain barrier (BBB) (Kp, brain ratio, higher value means lower central nervous system permeability) is calculated. […]
Transcellular transport was performed according to the report of Sugimoto et al. (Reference 3). […] After 1 hr, the sample was collected from the side opposite to the side where the drug solution was added, and the concentration of the test compound was measured by LC-MS/MS. […]
Papp, A to B and Papp, B to A (apparent permeability) were calculated from the formula (1), and the efflux ratio (ER) was calculated from the formula (2). […]

[4] = molecular target: T2, human M1 receptor (hCHRM1) (Homo sapiens, UniProt P11229); assay: Measurement of M1 receptor positive allosteric modulator (M1PAM) activity; assay type: cell-based; details: CHO-K1 cells stably expressing hCHRM1, in the presence of acetylcholine at EC20 concentration, IP1 readout
T2 construct: expressed in transfected cells
T2 sequence (P11229 1-460): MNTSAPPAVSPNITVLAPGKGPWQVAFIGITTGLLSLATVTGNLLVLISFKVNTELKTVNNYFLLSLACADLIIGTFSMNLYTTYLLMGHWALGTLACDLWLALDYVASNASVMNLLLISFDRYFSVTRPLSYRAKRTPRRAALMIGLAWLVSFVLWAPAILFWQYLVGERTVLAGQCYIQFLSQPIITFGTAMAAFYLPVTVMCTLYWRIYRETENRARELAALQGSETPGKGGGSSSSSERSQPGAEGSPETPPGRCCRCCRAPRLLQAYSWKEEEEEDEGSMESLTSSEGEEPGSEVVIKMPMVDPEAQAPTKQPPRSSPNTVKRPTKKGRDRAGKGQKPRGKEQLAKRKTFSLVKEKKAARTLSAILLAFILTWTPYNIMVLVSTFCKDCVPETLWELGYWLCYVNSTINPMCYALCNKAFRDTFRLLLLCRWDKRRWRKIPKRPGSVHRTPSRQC
Protocol: Measurement of M1 Receptor Positive Allosteric Modulator (M1PAM) Activity
The activity of a test compound in the presence of acetylcholine at an EC20 concentration affording about 20% action of the maximum activity was measured as PAM activity. The method therefor is as follows. To a 384-well white plate (Greiner) was added 4 μL of the test compound diluted with IP1 Stimulation buffer (CisBio) containing 0.1% fatty acid-free BSA containing 80 nM acetylcholine. Freeze stock of CHO-K1 cells stably expressing human M1 receptor (hCHRM1) was prepared with IP1 Stimulation buffer (CisBio) containing 0.1% fatty acid-free BSA, 4 μL thereof was added (10,000 cells/well) and the mixture was cultured in a 5% CO2 incubator at 37° C. for 1 hr. 4 μL of a solution (CisBio) containing IP1-d2 and Anti-IP1-cryptate Tb conjugate was added, the mixture was incubated at room temperature for 1 hr, and the time-resolved fluorescence signal was measured on an Envision plate reader (PerkinElmer). The activity (%) of the test compound was calculated by defining the value when acetylcholine was added at the final concentration of 20 μM as 100% and the value when DMSO was added instead of the test compound under acetylcholine-free conditions as 0%, and the EC50 value was calculated as a value of 50% of the concentration dependence curve of the test compound.

[5] = test system: Male SD rats; assay: Rat defecation experiment; assay type: in vivo; details: mean ± standard error
Protocol: Rat Defecation Experiment
Male SD rats (5-6 weeks old) were used after an acclimation period for about 1 week. A test drug (1 mg/kg or […]) was suspended in 0.5% methylcellulose solution and orally administered at a volume of 5 mL/kg, and the number of feces 2 hr later was counted. Only 0.5% methylcellulose was administered to a solvent administration group.

COCCNC(=O)c1ccc(Cc2cc3c(c4c2OCC4)OCN([C@H]2CCOC[C@@H]2O)C3=O)cc1F [Example 1, 1,5-anhydro-2,3-dideoxy-3-[6-({3-fluoro-4-[(2-methoxyethyl)carbamoyl]phenyl}methyl)-4-oxo-8,9-dihydro-2H-furo[2,3-h][1,3]benzoxazin-3(4H)-yl]-L-threo-pentitol]
number of HAPCs in the intestinal tract [1]: an increase in the number of HAPCs in the intestinal tract was observed
MRT ([2]; intravenous 0.1 mg/kg, 10 compounds cassette administration): 48 min
clearance ([2]; intravenous 0.1 mg/kg, 10 compounds cassette administration, read-out: CL total (converted)): 12.6 mL/min/kg
Tmax ([2]; oral 1 mg/kg, 5 compounds cassette administration): 60 min
efflux ratio at 1 h, 10 μmol/L [3]: 15
EC50 [4]: 310 pM
number of feces 2 hr later ([5]; 1 mg/kg orally): 14.8 ± 1.2
number of feces 2 hr later ([5]; 3 mg/kg orally): 13.9 ± 2.1
